From article PMC4912613, “A broad analysis of resistance development in the malaria parasite” (Nature Communications, 2016)
Where two headings read alike, the source gives them in different places.

Legend:
[1] = test system: DHODH (E182D, parent 3D7); assay: Cross-resistance EC50 assay, DHODH; type: cell-based; conditions: Plasmodium falciparum, SYBR green 72 hour assay, synchronized parasites, 384-well format
Description: (§1) To evaluate potential overlapping activity against known antimalarial drug targets, we performed dose-response studies with each compound against our assembled set of drug-resistant lines and their corresponding parents, in an asexual blood stage proliferation assay (Table 1). Comparisons were made to the drug-sensitive strain 3D7 when a parent was unavailable (TM90C2A, W2 and Dd2). As laboratories conducted EC50 assays with different strains and protocols, all comparisons were made between assays from the same laboratory and under the same assay conditions. Compounds displaying >5-fold EC50 shifts relative to the parent or sensitive strain were flagged as having potentially non-novel targets. Average fold shifts per strain ranged from 0.82 to 2.34, with a median of 1.23 indicating there was not common resistance to any one resistant clone. No resistance patterns were observed when classifying the compounds based on chemical structure, but this was not surprising given the diversity of compounds chosen. On the other hand, given that these confirmed compounds were derived from larger unconfirmed hit lists to which some filtration criteria may have been applied (for example, elimination of obvious dihydrofolate reductase inhibitors[32]), some[10][11][12][13] pre-existing bias may exist in the set. […]
(§2) Alternatively, a SYBR Green-based proliferation approach was used for the 72-h assay, as previously described. Briefly, a culture of either synchronized or asynchronous parasitized RBCs (0.3% parasitemia and 4% haematocrit) in screening medium (identical to supplemented medium above except no serum was added) was exposed to serial drug dilutions. Plates were incubated at 37 °C and gassed with 93% N2, 4% CO2 and 3% O2 for 72 h. Following incubation, 10 × SYBR Green I (Invitrogen; supplied in 10,000 × concentration) in lysis buffer ([…], 5 mM EDTA, 0.16% Saponin wt per vol and 1.6% Triton X vol per vol) was added to the wells and the plates were incubated overnight at room temperature before plate reading. EC50 assays were repeated three times, taking the average EC50 value from each assay set, and removing any outliers using a single iteration of Grubbs' test, eliminating values with z-scores above the critical z-value (α=0.05). The raw EC50 values for synchronized parasites assayed in a 384-well format are listed in Supplementary Data 4. The raw EC50 values for asynchronous parasites assayed in a 96 or 1536-well format are listed in Supplementary Data 5.
(§3) EC50 values for each strain were compared with those of the corresponding parent strain to determine fold-shift changes and identify resistance. To minimize the cause variance between assays, all comparisons were conducted between strains assayed under identical conditions. A one-way ANOVA followed by a Dunnet's post-test was conducted in GraphPad Prism to identify significant changes between the parent and resistant strain.

[2] = test system: ATQ-R5 (cytb F267V, parent 3D7); assay: Cross-resistance EC50 assay, ATQ-R5; type: cell-based, Plasmodium falciparum; conditions: for EC50: Plasmodium falciparum, 3D7, SYBR green 72 hour assay, asynchronized parasites, 96-well or 1536-well format, ATQ-R5
Description: as §1, §2, §3

[3] = test system: P. berghei exoerythrocytic forms; assay: Liver-stage P. berghei hepatocyte invasion and development assay (luminescence, HepG2); type: cell-based, Plasmodium berghei; conditions: for EC50: HepG2, 48 h, read-out: Liver Stage EC50; for EC50 fold shift compared to asexual stage: Liver Stage EC50: liver stage EC50 / 3D7 EC50
Description: As drugs that eliminate multiple stages of the parasite lifecycle will be critical components in global efforts to eliminate malaria, we were interested in knowing whether the compounds in our study had additional activities against either the liver and/or transmission stages of the parasite lifecycle. To determine this, we first evaluated the compounds in additional phenotypic assays. The first assay was a P. berghei hepatocyte invasion and development assay, which predicts causal prophylactic activity. Hepatocyte toxicity was additionally tested to identify false-positive activity in the liver stage due to host-cell toxicity. Assays were executed in duplicate using a 12-point EC50 curve at starting concentrations of 5 μM or 50 μM (Supplementary Table 1).
Liver-stage activity was determined by pretreating hepatic human cells (HepG2) for 2 h with compound in 1,536-well plates infected with freshly dissected P. berghei sporozoites. After 48 h of incubation, the viability of P. berghei exoerythrocytic forms was measured by luminescence reaction light output using BrightGlo (Promega). Varying levels of compound concentration were used (5 μM or 50 μM) due to the stock concentration supplied.

[4] = test system: TM90C2A (DHFR, folate pathway; compared with 3D7); assay: Cross-resistance EC50 assay, TM90C2A; type: cell-based; conditions: Plasmodium falciparum, 48 h, read-out: TM90C2A (3D7 Parent) Average EC50
Description: To evaluate potential overlapping activity against known antimalarial drug targets, we performed dose-response studies with each compound against our assembled set of drug-resistant lines and their corresponding parents, in an asexual blood stage proliferation assay (Table 1). Comparisons were made to the drug-sensitive strain 3D7 when a parent was unavailable (TM90C2A, W2 and Dd2). As laboratories conducted EC50 assays with different strains and protocols, all comparisons were made between assays from the same laboratory and under the same assay conditions. Compounds displaying >5-fold EC50 shifts relative to the parent or sensitive strain were flagged as having potentially non-novel targets. Average fold shifts per strain ranged from 0.82 to 2.34, with a median of 1.23 indicating there was not common resistance to any one resistant clone. No resistance patterns were observed when classifying the compounds based on chemical structure, but this was not surprising given the diversity of compounds chosen. On the other hand, given that these confirmed compounds were derived from larger unconfirmed hit lists to which some filtration criteria may have been applied (for example, elimination of obvious dihydrofolate reductase inhibitors[32]), some[10][11][12][13] pre-existing bias may exist in the set.
The 48-h assay was carried out in a 96-well format following standard methods using the ^3H-hypoxanthine incorporation assay. The raw EC50 values corresponding to this assay can be found in Supplementary Data 3. Briefly, this assay relies on the parasite incorporation of labelled hypoxanthine that is proportional to P. falciparum growth. A culture of parasitized RBCs (0.5% parasitemia with a percentage of ring stage higher than 70% of total parasitemia, 2.0% haematocrit) in RPMI-1640, […] and 5 μM hypoxanthine was exposed to drug serial dilutions. Plates were incubated for 24 h at 37 °C, 5% CO2, 5% O2 and 90% N2. After 24 h of incubation, ^3H-hypoxanthine was added and plates were incubated for an additional 24-h period. After that, parasites were harvested on a glass fibre filter using a TOMTEC Cell Harvester 96. Filters were dried and melt-on scintillator sheets were used to determine the incorporation of ^3H-hypoxanthine. Radioactivity was measured using a microbeta counter. Data were normalized using the incorporation of the positive (parasitized RBCs without drug) and negative (same culture with artesunate at 2 μM) controls. All assays were conducted in triplicate using three independently grown cultures, and EC50 values were determined using the XLfit add-in module for Excel (version 2.3.1) from Grafit (version 5.3.1.3), where parameter h is the assay hill slope, x is the compound concentration and y is the inhibition of growth effect. The XLfit equation is: […]
as §3

[5] = Plasmodium berghei, P. berghei sporozoites

Compound | EC50 ([1]; 3D7, DHODH strain) [nM] | EC50 [2] [µM] | EC50 [3, 5] [nM] | EC50 fold shift compared to asexual stage: Liver Stage EC50 [3] | EC50 ([1]; strain DHODH (3D7 parent)) [nM] | EC50 [4] [nM] | resistance in ATQ-R5 vs parent ([2]; EC50 fold-shift under the threshold (5-fold)) | EC50 ([3]; P. berghei sporozoites) [nM] | EC50 ([3]; Plasmodium berghei) [nM]
COc1ccc(NC(=O)N2CCCCN3[C@H](CN)[C@H](c4ccc(C#Cc5ccccc5)cc4)[C@@H]3C2)cc1 [BRD1095] | 23 | 0.002 | 82.6 | 2.07 | – | – | – | – | –
CCN(CC)CCn1c(=N)n(CC(O)c2ccc(Cl)c(Cl)c2)c2ccccc21.Cl (centres unmarked) [MMV000248] | – | 0.191 | 5550 | 18.14 | 315 | 466 | – | – | –
CCOc1cc2c(cc1OCC)C(c1cc(Cl)ccc1O)NCC2 (centres unmarked) [MMV000478] | – | 0.733 | > 5000 | > 5 | 1450 | 1440 | – | – | –
CCCOCc1cc(CN2CCN(c3cccc(Cl)c3)CC2)c(O)c2ncccc12 [MMV000787] | – | 1.43 | 600 | – | 467 | 1040 | – | – | –
CN1CCN(c2ccc(Nc3c4ccccc4nc4ccccc34)cc2)CC1 [MMV006172] | – | 0.181 | 2060 | – | 50 | 162 | – | – | –
CCCN(CCC)CC(O)COc1ccccc1C(=O)Nc1ccccc1 (centres unmarked) [MMV006455] | – | 0.548 | > 5000 | > 9.4 | 2830 | 377 | – | – | –
COc1cc2cc(C(=O)Nc3ccccc3)c(N)nc2cc1OC [MMV006767] | – | 2.87 | > 50000 | – | 519 | 2870 | – | – | –
Cc1cc(Nc2ccc(OCc3ccccc3)cc2)nc2cc(O)ccc12 [MMV007181] | – | 0.088 | 4790 | 13.83 | 206 | 278 | – | – | –
Brc1ccc(Nc2nc3ccccc3nc2Nc2ccc(Br)cc2)cc1 [MMV007224] | – | 0.719 | 514 | 2.32 | 606 | 154 | – | – | –
Cc1ccc(Cn2c(N3CCC(C(=O)NCc4cccs4)CC3)nc3ccccc32)cc1 [MMV007564] | – | 1.33 | 1510 | 2.60 | 631 | 655 | – | – | –
Cc1c(C)n(Cc2ccc(F)cc2)c2ccc(C(=O)NCc3ccco3)cc12 [MMV008149] | – | 1.58 | 882 | 1.15 | 401 | 908 | – | – | –
OC(CNC1CCCCC1)Cn1c2ccccc2c2ccccc21 (centres unmarked) [MMV009063] | – | 0.652 | > 5000 | > 6.3 | 715 | 537 | – | – | –
CCN(CC)S(=O)(=O)c1ccc(-c2csc(Nc3ccc(C)c(C)c3)n2)cc1 [MMV009108] | – | 2.35 | 4790 | 5.15 | 973 | 445 | – | – | –
COC(=O)c1ccc(C2C3=C(O)CC(c4ccc(F)cc4)CC3=Nc3ccccc3N2C(=O)c2ccccc2)cc1 (centres unmarked) [MMV011438] | – | 0.34 | 621 | 1.44 | 556 | 322 | – | – | –
Nc1ccc(-c2nc3cc(Oc4ccc(Oc5ccc6[nH]c(-c7ccc(N)cc7)nc6c5)cc4)ccc3[nH]2)cc1 [MMV011895] | – | 0.525 | > 50000 | > 300 | 168 | 356 | – | – | –
COCCNCC(O)Cn1c2ccc(Cl)cc2c2cc(Cl)ccc21 (centres unmarked) [MMV019017] | – | 0.842 | > 5000 | > 10 | 1040 | 868 | – | – | –
COc1ccccc1CNC(=O)CCn1c(=O)[nH]c2ccsc2c1=O [MMV019066] | – | 0.023 | 318 | 0.19 | 53 | 1620 | Statistically significant resistance | 310 | –
Cl.c1ccc2c(NCCCCCCNc3c4c(nc5ccccc35)CCCC4)c3c(nc2c1)CCCC3 [MMV019555] | – | 0.086 | – | – | 56 | 280 | – | – | 319
COc1ccc(N2CCN(C(CNC(=O)C3CCCCC3)c3ccc4c(c3)OCO4)CC2)cc1 (centres unmarked) [MMV019662] | – | 0.596 | 18900 | 55.47 | 860 | 209 | – | – | –
COc1ccc(-c2nc(NC(=O)Cc3ccc4c(c3)OCCO4)sc2C)cc1 [MMV019719] | – | 0.213 | 10500 | 63.78 | 180 | 210 | – | – | –
Cc1ccc(Oc2ncccc2C(=O)Cc2cccc3cccnc23)c(C)c1 [MMV020746] | – | 1.49 | 12100 | 159.34 | 122 | 201 | – | – | –
COc1cc(-c2nc(-c3ccccc3)c(-c3ccccc3)[nH]2)cc(OC)c1O [MMV020750] | – | 0.873 | > 5000 | 23.86 | 509 | 674 | – | – | –
CN(C)CCCN(C)C(=O)C1Cc2cc(-c3ccccc3)ccc2N1S(=O)(=O)c1ccccc1 (centres unmarked) [MMV028895] | – | 0.879 | – | – | 81 | 253 | – | – | –
COc1ccc2c3c([nH]c2c1)[C@H](CO)N(C(C)=O)CC31CCN(C(=O)Nc2ccccc2F)CC1 [MMV673482] | 151 | 0.025 | – | – | – | 352 | – | – | –
